Data: US20240033224A1, “ENTERIC-COATED PELLET, METHOD FOR PREPARING SAME AND FORMULATION COMPRISING SAME” (LIVZON PHARMACEUTICAL GROUP INC., priority 2020, published 2024)

Test: Stability of prazole starting materials in phosphate buffer media at pH 6.8 and 8.0
Description: Phosphate buffer media at pH 6.8 and 8.0 containing 0.5% w/w of sodium dodecyl sulfate were prepared, added into dissolution cups, with 1000 mL per cup. 0.5 mg of each of ilaprazole, omeprazole magnesium, esomeprazole magnesium, rabeprazole sodium, pantoprazole and lansoprazole was weighed and added into the dissolution cups, stirred at 150 rpm by a paddle method to ensure that the prazole starting materials sank into the media and dissolved therein. 5 mL of each of the samples was collected at 15 min, 30 min, 45 min and 60 min respectively, and added to 20 mL of sodium hydroxide stabilization medium, and then the volume was made up to 50 mL with the mobile phase.
The collected sample content in the media was determined according to the determination method of omeprazole magnesium, esomeprazole magnesium, rabeprazole sodium, pantoprazole sodium and lansoprazole in the Chinese Pharmacopoeia (Volume II, 2015 Edition) so as to determine the stability of the prazoles in the media at pH 6.8 and 8.0.

[1] = buffer, 0.25 h, 0.5 µg/mL, pH 6.8
[2] = buffer, 0.25 h, 0.5 µg/mL, pH 8
[3] = buffer, 0.5 h, 0.5 µg/mL, pH 6.8
[4] = buffer, 0.75 h, 0.5 µg/mL, pH 6.8
[5] = buffer, 0.75 h, 0.5 µg/mL, pH 8

Compound | stability in medium at pH 6.8 compared between prazoles (pH 6.8) | remaining amount after the degradation (buffer, 0 h, 0.5 µg/mL, pH 6.8) | remaining amount after the degradation (buffer, 0 h, 0.5 µg/mL, pH 8) | remaining amount after the degradation [1] | remaining amount after the degradation [2] | remaining amount after the degradation [3] | remaining amount after the degradation (buffer, 0.5 h, 0.5 µg/mL, pH 8) | remaining amount after the degradation [4] | remaining amount after the degradation [5] | remaining amount after the degradation (buffer, 1 h, 0.5 µg/mL, pH 6.8) | remaining amount after the degradation (buffer, 1 h, 0.5 µg/mL, pH 8) | further results
COc1ccc2[n-]c([S+]([O-])Cc3ncc(C)c(OC)c3C)nc2c1.COc1ccc2[n-]c([S+]([O-])Cc3ncc(C)c(OC)c3C)nc2c1.[Mg+2] (stereo not drawn) [Esomeprazole magnesium, esomeprazole magnesium] | the best |  |  |  |  |  |  |  |  |  |  | remaining amount after the degradation (medium at pH 6.8, 15 min): 89.6%; remaining amount after the degradation (medium at pH 6.8, 30 min): 70.9%; remaining amount after the degradation (medium at pH 6.8, 45 min): 56.0%; remaining amount after the degradation (medium at pH 6.8, 60 min): 41.4%; remaining amount after the degradation (medium at pH 8.0, 15 min): 99.2%; remaining amount after the degradation (medium at pH 8.0, 30 min): 98.6%; remaining amount after the degradation (medium at pH 8.0, 45 min): 97.6%; remaining amount after the degradation (medium at pH 8.0, 60 min): 96.4%
COc1ccnc(C[S+]([O-])c2nc3cc(-n4cccc4)ccc3[nH]2)c1C (stereo not drawn) [Ilaprazole, ilaprazole] | the worst | 100.0% | 100.0% | 59.7% | 94.3% | 42.7% | 91.5% | 29.4% | 88.6% | 20.7% | 84.6% | 
Cc1c(OCC(F)(F)F)ccnc1C[S+]([O-])c1nc2ccccc2[nH]1 (stereo not drawn) [Lansoprazole, lansoprazole] |  | 100.0% | 100.0% | 85.7% | 98.7% | 70.2% | 96.2% | 53.6% | 95.3% | 38.6% | 93.5% | 
COc1ccc2[n-]c([S+]([O-])Cc3ncc(C)c(OC)c3C)nc2c1.COc1ccc2[n-]c([S+]([O-])Cc3ncc(C)c(OC)c3C)nc2c1.[Mg+2] (stereo not drawn) [Omeprazole magnesium, omeprazole magnesium] |  |  |  |  |  |  |  |  |  |  |  | remaining amount after the degradation (buffer, 0 h, pH 6.8): 100.0%; remaining amount after the degradation (buffer, 0 h, pH 8): 100.0%; remaining amount after the degradation (buffer, 0.25 h, pH 6.8): 81.2%; remaining amount after the degradation (buffer, 0.25 h, pH 8): 98.2%; remaining amount after the degradation (buffer, 0.5 h, pH 6.8): 66.7%; remaining amount after the degradation (buffer, 0.5 h, pH 8): 95.4%; remaining amount after the degradation (buffer, 0.75 h, pH 6.8): 47.4%; remaining amount after the degradation (buffer, 0.75 h, pH 8): 96.3%; remaining amount after the degradation (buffer, 1 h, pH 6.8): 29.2%; remaining amount after the degradation (buffer, 1 h, pH 8): 91.2%
COc1ccnc(C[S+]([O-])c2nc3ccc(OC(F)F)cc3[nH]2)c1OC (stereo not drawn) [Pantoprazole sodium, pantoprazole sodium] |  | 100.0% | 100.0% | 83.6% | 98.6% | 65.9% | 95.9% | 50.2% | 92.2% | 35.4% | 91.4% | 
COCCCOc1ccnc(C[S+]([O-])c2nc3ccccc3[nH]2)c1C (stereo not drawn) [Rabeprazole sodium, rabeprazole sodium] |  | 100.0% | 100.0% | 70.3% | 97.3% | 51.5% | 93.5% | 38.6% | 90.6% | 24.6% | 88.5% | 
